Reference: patent publication US10294202B2, “Pyrrolidinones as herbicides” (FMC Corporation, priority 2013, dated 2019)
Where two headings read alike, the source gives them in different places.

Columns and labels:
[1] = tested on: ragweed; test: Test C pre-/postemergence herbicide test; assay type: in vivo, Ambrosia elatior
In short: (§1)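 Visual rating, 0 (no effect) to 100 (complete control), versus untreated controls after 13 to 15 days in the greenhouse. Pre: seeds in loam/sand, sprayed at planting. Post: 1- to 4-leaf plants (2 to 18 cm) in peat-based mix. Compounds in non-phytotoxic solvent plus surfactant.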

[2] = tested on: pigweed; test: Test C pre-/postemergence herbicide test; assay type: in vivo, Amaranthus retroflexus
In short: as §1

[3] = tested on: corn; test: Test A pre-/postemergence herbicide test; assay type: in vivo, Zea mays; conditions: Zea mays, 240 h, 1000 g ai/ha
In short: (§2)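 Seeds sown in loam soil/sand blend received a preemergence directed soil spray of test chemical in non-phytotoxic solvent with surfactant; postemergence plants (2–10 cm, one- to two-leaf stage) were sprayed with the same formulation. After about 10 days in greenhouse, injury was rated visually versus untreated controls, 0 (no effect) to 100 (complete control).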

[4] = tested on: lambsquarters; test: Test C pre-/postemergence herbicide test; assay type: in vivo, Chenopodium album
In short: as §1

[5] = tested on: giant foxtail; test: Test A pre-/postemergence herbicide test; assay type: in vivo, Setaria faberii; conditions: Setaria faberi, 240 h, 1000 g ai/ha, read-out: Plant response rating, Foxtail, Giant
In short: as §2

[6] = tested on: johnsongrass; test: Test C pre-/postemergence herbicide test; assay type: in vivo, Sorghum halepense
In short: as §1

[7] = tested on: crabgrass, large; test: Test C pre-/postemergence herbicide test; assay type: in vivo, Digitaria sanguinalis
In short: as §1

[8] = tested on: wheat (winter wheat); test: Test C pre-/postemergence herbicide test; assay type: in vivo, Triticum aestivum
In short: as §1

[9] = tested on: oat, wild; test: Test C pre-/postemergence herbicide test; assay type: in vivo, Avena fatua
In short: as §1

[10] = Postemergence, 31 g ai/ha, scale 0 (no effect) to 100 (complete control)
[11] = Postemergence, 62 g ai/ha, scale 0 to 100 (0 no effect, 100 complete control)
[12] = Postemergence, 125 g ai/ha, scale 0 to 100 (0 no effect, 100 complete control)
[13] = Postemergence, 250 g ai/ha, scale 0 to 100 (0 no effect, 100 complete control)
[14] = Preemergence, 62 g ai/ha, scale 0 to 100
[15] = Preemergence, 125 g ai/ha, scale 0 to 100 (0 no effect, 100 complete control)
[16] = post-emergence, Postemergence, 0 to 100 scale (0 no effect, 100 complete control)
[17] = pre-emergence, Preemergence, visual rating on 0 to 100 scale (0 no effect, 100 complete control), approx. 10 days

With O=C1NCC(c2ccc(F)c(F)c2)C1C(=O)Nc1cccc(F)c1F (stereo not drawn) [Compound 17, N-(2,3-difluorophenyl)-4-(3,4-difluorophenyl)-2-oxo-3-pyrrolidinecarboxamide] the “Plant response rating, Ragweed” value [1, 10] was 0, the “Plant response rating, Ragweed” value [1, 11] was 0 and the “Plant response rating, Ragweed” value [1, 12] was 0. The “Plant response rating, Ragweed” value [1, 13] was 0, the “Plant response rating, Ragweed” value [1, 14] was 0 and the “Plant response rating, Ragweed” value [1, 15] was 30. The “Plant response rating, Pigweed” value [2, 10] was 0, the “Plant response rating, Pigweed” value [2, 11] was 0 and the “Plant response rating, Pigweed” value [2, 12] was 0. The “Plant response rating, Pigweed” value [2, 13] was 0, the “Plant response rating, Pigweed” value [2, 14] was 0 and the “Plant response rating, Pigweed” value [2, 15] was 50. The Corn plant response rating (crop injury, 0 = no effect, 100 = complete kill) at 1000 g/ha [3, 16] was 60%, the Corn plant response rating (crop injury, 0 = no effect, 100 = complete kill) at 1000 g/ha [3, 17] was 60% and the “Plant response rating, Lambsquarters” value [4, 10] was 0. The “Plant response rating, Lambsquarters” value [4, 11] was 0, the “Plant response rating, Lambsquarters” value [4, 12] was 0 and the “Plant response rating, Lambsquarters” value [4, 13] was 0. For the same compound, the “Plant response rating, Lambsquarters” value [4, 14] was 60, the “Plant response rating, Lambsquarters” value [4, 15] was 60 and the pest or weed control at 1000 g/ha [5, 16] was 90%. The pest or weed control at 1000 g/ha [5, 17] was 90%, the “Plant response rating, Johnsongrass” value [6, 10] was 0 and the “Plant response rating, Johnsongrass” value [6, 11] was 0. The “Plant response rating, Johnsongrass” value [6, 12] was 0, the “Plant response rating, Johnsongrass” value [6, 13] was 0 and the “Plant response rating, Johnsongrass” value [6, 14] was 5. For the same compound, the “Plant response rating, Johnsongrass” value [6, 15] was 65, the “Plant response rating, Crabgrass, Large” value [7, 10] was 0 and the “Plant response rating, Crabgrass, Large” value [7, 11] was 0. For the same compound, the “Plant response rating, Crabgrass, Large” value [7, 12] was 45, the “Plant response rating, Crabgrass, Large” value [7, 13] was 70 and the “Plant response rating, Crabgrass, Large” value [7, 14] was 98. For the same compound, the “Plant response rating, Crabgrass, Large” value [7, 15] was 100, the “Crabgrass, Large plant response rating” value ([7]; Preemergence, 31 g ai/ha, scale 0 to 100 (0 no effect, 100 complete control)) was 95 and the “Plant response rating, Crabgrass, Large” value ([7]; Preemergence, 250 g ai/ha, scale 0 to 100 (0 no effect, 100 complete control)) was 100. The “Plant response rating, Wheat” value [8, 10] was 0, the “Plant response rating, Wheat” value [8, 11] was 0 and the “Plant response rating, Wheat” value [8, 12] was 0. The “Plant response rating, Wheat” value [8, 13] was 0, the “Plant response rating, Wheat” value [8, 14] was 0 and the “Plant response rating, Wheat” value [8, 15] was 0. For the same compound, the “Plant response rating, Oat, Wild” value [9, 10] was 0, the “Plant response rating, Oat, Wild” value [9, 11] was 0 and the “Plant response rating, Oat, Wild” value [9, 12] was 0. The “Plant response rating, Oat, Wild” value [9, 13] was 0, the “Plant response rating, Oat, Wild” value [9, 14] was 0 and the “Plant response rating, Oat, Wild” value [9, 15] was 0.
